# Experimental data reported in patent publication US7144865B2, “Compositions and methods for treating obesity” (The United States of America as represented by the …, priority 2003, dated 2006).
# Like-named read-outs stand apart in the source and are kept apart here.
# How the values were obtained:
# [1] = Arachidonic acid plus zinc and L-histidine in drinking water for 14 days in ob/ob and lean mice (Example 2, Table 3); assay type: in vivo; details: for Body Weight Gain / Food Intake / Water Intake: 14 days, mean ± SEM
# Procedure: Eight week old male C57BL/6J-obese ob/ob mice and their lean wild-type littermates were randomly divided into five groups of five mice and treated with the following levels of AA in drinking water: (i) 0 mg AA/l; (ii) 10 mg AA/l; (iii) 20 mg AA/l; (iv) 50 mg AA/l; or (v) 100 mg AA/l. 10 mg zinc and 0.5 mg L-histidine/l were also included at each level of AA described above. The treatment solutions were replaced with freshly prepared solutions every other day during the 2-week treatment period. Body weight, and food and water intake were measured every other day in the morning, beginning the first day of treatment.
# [2] = Water intake in G-K rats treated with AA plus zinc (Example 3, FIG. 10); assay type: in vivo; details: One-month old G-K rats, 2 weeks
# Excerpt: (FIG. 10). Thus, water intake was reduced in rats with all treatments containing zinc relative to DW-treated rats, but not with the AA-only treatment.
# [3] = tested on: intestinal zinc absorption; details: normal (non-diabetic) rats, oral, cited from earlier work
# [4] = tested on: intestinal zinc transport; details: cited from earlier work
# [5] = cited from earlier work
# [6] = cited from earlier work; remark: listed apart in the source
# [7] = CHP plus zinc and L-histidine in drinking water for 21 days in ob/ob and lean mice (Example 5, Table 1); assay type: in vivo; details: for Body Weight Gain / Food Intake / Water Intake: 21 days, mean ± SEM
# Procedure: Ob/ob and lean mice were randomly divided into four groups and treated with drinking water containing either 0, 0.5, 1.0, or 1.5 mg CHP/L plus 10 mg zinc and 0.5 mg L-histidine/L. Drinking water containing test substances was prepared every other day with freshly prepared solutions. During the testing non-fasting blood glucose concentrations, food and water intake, and body weight were measured every other day in the morning. Non-fasting plasma insulin concentrations and three-hour average blood glucose concentrations were determined at the end of the three-week treatment period.
# [8] = Plasma insulin levels in G-K rats treated with zinc and CHP (Example 1, Table 2); assay type: in vivo; details: for Plasma Insulin Levels (mean ± SEM): 6-month old G-K rats
# Excerpt: However, higher doses of CHP decreased plasma insulin levels. (Table 2)
# [9] = cited from earlier work; remark: listed apart in the source
# [10] = humans; CHP intake; cited from earlier work
# [11] = Body weight and growth rate of G-K rats treated with zinc or zinc plus CHP (FIGS. 1, 2, 11-13); assay type: in vivo; details: one month old (young) G-K rats; FIG. 2
# Excerpt: I believe that CHP is effective in maintaining body weight control even after the cessation of the treatment.
# [12] = Food and water intake in G-K rats treated with zinc or zinc plus CHP (FIGS. 6, 8); assay type: in vivo
# [13] = Body weight and water intake in S-D rats treated with zinc or zinc plus CHP (FIGS. 4, 5, 9); details: 8-month old S-D rats; FIG. 9
# [14] = Lean mice, 10 mg/L AA plus 10 mg/L zinc and 0.5 mg/L L-histidine
# [15] = Lean mice, 20 mg/L AA plus 10 mg/L zinc and 0.5 mg/L L-histidine
# [16] = Lean mice, 50 mg/L AA plus 10 mg/L zinc and 0.5 mg/L L-histidine
# [17] = Lean mice, 100 mg/L AA plus 10 mg/L zinc and 0.5 mg/L L-histidine
# [18] = Ob/ob mice, 10 mg/L AA plus 10 mg/L zinc and 0.5 mg/L L-histidine
# [19] = Ob/ob mice, 20 mg/L AA plus 10 mg/L zinc and 0.5 mg/L L-histidine, p < 0.05 vs 0 mg/l group
# [20] = Ob/ob mice, 50 mg/L AA plus 10 mg/L zinc and 0.5 mg/L L-histidine
# [21] = Ob/ob mice, 100 mg/L AA plus 10 mg/L zinc and 0.5 mg/L L-histidine
# [22] = Lean mice, 0.5 mg/L CHP plus 10 mg/L zinc and 0.5 mg/L L-histidine
# [23] = Lean mice, 1.0 mg/L CHP plus 10 mg/L zinc and 0.5 mg/L L-histidine
# [24] = Lean mice, 1.5 mg/L CHP plus 10 mg/L zinc and 0.5 mg/L L-histidine
# [25] = Ob/ob mice, 0.5 mg/L CHP plus 10 mg/L zinc and 0.5 mg/L L-histidine
# [26] = Ob/ob mice, 1.0 mg/L CHP plus 10 mg/L zinc and 0.5 mg/L L-histidine
# [27] = Ob/ob mice, 1.5 mg/L CHP plus 10 mg/L zinc and 0.5 mg/L L-histidine
compound,measurement,setting,value
"CCCCC/C=C\C/C=C\C/C=C\C/C=C\CCCC(=O)O [AA, arachidonic acid]",Body Weight Gain,[1]; [14],1.0 ± 0.2 g
same,Food Intake,[1]; [14],143.9 ± 13.2 g/kg BW/day
same,Water Intake,[1]; [14],207.3 ± 23.6 ml/kg BW/day
same,Body Weight Gain,[1]; [15],0.6 ± 0.2 g
same,Food Intake,[1]; [15],129.9 ± 11.1 g/kg BW/day
same,Water Intake,[1]; [15],211.6 ± 23.6 ml/kg BW/day
same,Body Weight Gain,[1]; [16],1.0 ± 0.3 g
same,Food Intake,[1]; [16],133.1 ± 9.5 g/kg BW/day
same,Water Intake,[1]; [16],211.9 ± 21.5 ml/kg BW/day
same,Body Weight Gain,[1]; [17],0.6 ± 0.1 g
same,Food Intake,[1]; [17],130.0 ± 13.2 g/kg BW/day
same,Water Intake,[1]; [17],216.1 ± 21.0 ml/kg BW/day
same,Body Weight Gain,[1]; [18],2.3 ± 0.7 g
same,Food Intake,[1]; [18],126.5 ± 13.2 g/kg BW/day
same,Water Intake,[1]; [18],215.9 ± 15.2 ml/kg BW/day
same,Body Weight Gain,"[1]; Ob/ob mice, 20 mg/L AA plus 10 mg/L zinc and 0.5 mg/L L-histidine",2.6 ± 0.4 g
same,Food Intake,[1]; [19],107.5 ± 9.0 g/kg BW/day
same,Water Intake,[1]; [19],182.9 ± 12.4 ml/kg BW/day
same,Body Weight Gain,[1]; [20],2.4 ± 1.7 g
same,Food Intake,[1]; [20],114.4 ± 9.9 g/kg BW/day
same,Water Intake,"[1]; Ob/ob mice, 50 mg/L AA plus 10 mg/L zinc and 0.5 mg/L L-histidine, p < 0.05 vs 0 mg/l group",188.7 ± 11.5 ml/kg BW/day
same,Body Weight Gain,[1]; [21],2.9 ± 0.5 g
same,Food Intake,[1]; [21],116.0 ± 12.0 g/kg BW/day
same,Water Intake,"[1]; Ob/ob mice, 100 mg/L AA plus 10 mg/L zinc and 0.5 mg/L L-histidine, p < 0.05 vs 0 mg/l group",198.9 ± 15.3 ml/kg BW/day
same,water and food intake,[1]; lean mice,no treatment effect
same,Food intake versus those treated with only zinc and L-histidine,"[1]; obese mice, 20 mg/L AA plus zinc, p<0.05",significantly lower
same,Water intake versus those given only zinc and L-histidine,"[1]; obese mice, 20, 50 or 100 mg AA/l, p<0.05",significantly lower
same,body weight,[1]; obese or lean mice,no effect
same,water intake reduced relative to DW-treated rats,[2]; AA-only treatment (20 mg/L AA),not
same,intestinal zinc absorption,"[3]; high doses of AA, above 1.0 mg/200 g body weight",increased
same,intestinal zinc absorption,[3]; low doses of AA (0.5 mg/200 g),decreased
same,zinc uptake (rate) of intestinal segments,"[4]; jejunal / isolated intestinal segments of diabetic rats, AA added to the segment-bathing medium",increased significantly
same,zinc transport rate into the circulatory system,[4]; jejunal segments of diabetic rats,did not enhance
same,Water Intake,[5]; diabetic G-K rats,significantly reduced
same,optimal concentration of AA required to provide improved blood glucose levels,[5]; diabetic G-K rats,4.0 mg/day/kg
same,water consumption rates,"[5]; diabetic rats, higher doses of AA",significantly decreased
same,optimal concentration of AA required to provide improved blood glucose levels,[5]; streptozotocin induced diabetic rats,11 mg/day/kg
same,Water Intake,[5]; streptozotocin-induced diabetic rats,significantly reduced
same,Water Intake,[6]; genetically obese mice,significantly reduced
same,optimal concentration of AA required to provide improved blood glucose levels,[6]; obese mice,2.0 mg/day/kg
"O=C1N[C@@H](Cc2cnc[nH]2)C(=O)N2CCC[C@@H]12 [CHP, cyclo-Hispro]",Body Weight Gain,[7]; [22],1.5 ± 0.4 g
same,Food Intake,[7]; [22],171.7 ± 12.5 g/kg BW/day
same,Water Intake,[7]; [22],267.1 ± 22.7 ml/kg BW/day
same,Body Weight Gain,[7]; [23],1.3 ± 0.5 g
same,Food Intake,[7]; [23],159.6 ± 7.3 g/kg BW/day
same,Water Intake,[7]; [23],258.2 ± 21.8 ml/kg BW/day
same,Body Weight Gain,[7]; [24],2.2 ± 0.9 g
same,Food Intake,[7]; [24],180.6 ± 19.5 g/kg BW/day
same,Water Intake,[7]; [24],302.5 ± 27.2 ml/kg BW/day
same,Body Weight Gain,[7]; [25],4.3 ± 0.8 g
same,Food Intake,[7]; [25],128.3 ± 7.8 g/kg BW/day
same,Water Intake,[7]; [25],198.2 ± 13.5 ml/kg BW/day
same,Food Intake,[7]; [26],110.6 ± 10.3 g/kg BW/day
same,Water Intake,[7]; [26],160.4 ± 9.7 ml/kg BW/day
same,Body Weight Gain,"[7]; Ob/ob mice, 1.0 mg/L CHP plus 10 mg/L zinc and 0.5 mg/L L-histidine, p < 0.05 vs 0 or 0.5 mg CHP/L",2.3 ± 0.8 g
same,Body Weight Gain,[7]; [27],3.8 ± 0.9 g
same,Food Intake,[7]; [27],120.7 ± 10.4 g/kg BW/day
same,Water Intake,[7]; [27],192.5 ± 16.8 ml/kg BW/day
same,Water and food intake relative to the other treatment groups,"[7]; ob/ob mice, 1.0 mg CHP plus zinc and L-histidine, difference not significant",lowest
same,Body weight gain relative to those given zinc and L-histidine only,"[7]; ob/ob mice, 1.0 mg CHP/L plus zinc and L-histidine, P<0.05",significantly reduced
same,Plasma Insulin Levels (mean ± SEM),[8]; CHP only 1.0 mg/L in drinking water,0.907 ± 0.090 ng/mL
same,plasma insulin levels,"[8]; hyperinsulinemic diabetic G-K rats, higher / increasing doses of CHP",decreased
same,Water Intake,[9]; intraventricular administration,significantly reduces
same,Food Intake,"[9]; rats, CHP intake",decreases
same,Food Intake,[10],decreases
[Zn] [zinc],Plasma Insulin Levels (mean ± SEM),[8]; zinc only 10 mg/L in drinking water,0.637 ± 0.048 ng/mL
same,Water Intake,[2]; 10 mg/L zinc only,significantly decreased
same,growth rates,[11],not affected
same,Water Intake,[12]; 1.0-month-old rats,not affected
same,Water intake compared to distilled water (DW) treated rats,"[12]; 10 month old G-K rats, P<0.01, FIG. 8",significantly lower
same,water intakes,[13],significantly decreased
